From ChEMBL document CHEMBL4622901, “Vinyl sulfone-based inhibitors of trypanosomal cysteine protease rhodesain with improved antitrypanosomal activities” (Bioorg Med Chem Lett, 2020)

Assays:
Trypanosoma brucei = test: Antitrypanosomal activity against Trypanosoma brucei; assay type: functional, organism-based
[1] = Selectivity index, ratio of CC50 for human HepG2 cells to EC50 for Trypanosoma brucei; assay type: toxicity; details: read-out: Ratio CC50/EC50
[2] = Cytotoxicity against human HepG2 cells assessed as reduction in cell viability; assay type: cell-based
[3] = biological target: Rhodesain (Trypanosoma brucei rhodesiense) (UniProt Q95PM0); test: Inhibition of Trypanosoma brucei rhodesain at 10 uM measured after 1 hr relative to control
[4] = biological target: Rhodesain (Trypanosoma brucei rhodesiense) (UniProt Q95PM0); test: Inhibition of Trypanosoma brucei rhodesain assessed as Kinact/Ki ratio

Chain of Rhodesain (Trypanosoma brucei rhodesiense) (Q95PM0 1-450): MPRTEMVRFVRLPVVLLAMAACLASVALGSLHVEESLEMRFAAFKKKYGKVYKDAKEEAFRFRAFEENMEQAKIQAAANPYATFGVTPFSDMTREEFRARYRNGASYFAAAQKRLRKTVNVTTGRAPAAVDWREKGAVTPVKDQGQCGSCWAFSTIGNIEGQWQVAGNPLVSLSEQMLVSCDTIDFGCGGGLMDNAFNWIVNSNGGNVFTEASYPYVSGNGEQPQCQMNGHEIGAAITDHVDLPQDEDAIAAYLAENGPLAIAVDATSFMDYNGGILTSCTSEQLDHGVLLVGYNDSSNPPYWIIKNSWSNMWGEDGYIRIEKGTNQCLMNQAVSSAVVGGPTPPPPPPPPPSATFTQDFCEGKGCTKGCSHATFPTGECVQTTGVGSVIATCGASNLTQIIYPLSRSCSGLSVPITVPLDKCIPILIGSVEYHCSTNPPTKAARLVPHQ

| SMILES | EC50 (Trypanosoma brucei) [µM] | selectivity ratio [1] | CC50 [2] [µM] | inhibition [3] [%] | kinact/Ki [4] [M⁻¹ s⁻¹] |
| --- | --- | --- | --- | --- | --- |
| O=C(N[C@H](/C=C/S(=O)(=O)c1ccccc1)Cc1ccccc1)c1cccc2cccnc12 | 11.7 | 2.16 | 25.3 |  |  |
| CC1=CC(C)(C)Nc2c(C(=O)N[C@H](/C=C/S(=O)(=O)c3ccccc3)CCc3ccccc3)cccc21 | 1.88 | > 160 | > 300 |  |  |
| COc1cc([C@@H]2c3cc4c(cc3[C@H](O)[C@H]3COC(=O)[C@H]23)OCO4)cc(OC)c1OC [PODOFILOX] |  |  | < 0.5 |  |  |
| Cc1ccc(C(=O)Nc2ccc(S(=O)(=O)O)c3cc(S(=O)(=O)O)cc(S(=O)(=O)O)c23)cc1NC(=O)c1cccc(NC(=O)Nc2cccc(C(=O)Nc3cc(C(=O)Nc4ccc(S(=O)(=O)O)c5cc(S(=O)(=O)O)cc(S(=O)(=O)O)c45)ccc3C)c2)c1 [SURAMIN] | 0.004 |  |  |  |  |
| Cc1ncn(C)c1C(=O)N[C@H](/C=C/S(=O)(=O)c1ccccc1)CCc1ccccc1 | 19.6 | 1.76 | 34.4 |  |  |
| C[C@H]1CC(C)(C)Nc2c(C(=O)N[C@H](/C=C/S(=O)(=O)c3ccccc3)CCc3ccccc3)cccc21 | 3.02 | > 99.3 | > 300 |  |  |
| O=C(N[C@H](/C=C/S(=O)(=O)c1ccccc1)CCc1ccccc1)c1cccc2nccnc12 | 5.9 | 6.71 | 39.6 | 99.1 | 293 |
| CCC[C@@H](/C=C/S(=O)(=O)c1ccccc1)NC(=O)c1cccc2cccnc12 | 9.23 | > 8.66 | > 80 | 93.5 | 82.1 |
| O=C(N[C@H](/C=C/S(=O)(=O)c1ccccc1)CCc1ccccc1)c1cccc2cccnc12 | 5.97 | > 13.4 | > 80 | 100 |  |
| O=C(N[C@H](/C=C/S(=O)(=O)c1ccccc1)CCc1ccccc1)c1cccc2c1NCCC2 | 6.3 | > 25 | > 160 | 100 | 245 |
| O=C(NC/C=C/S(=O)(=O)c1ccccc1)c1cccc2cccnc12 | 14.3 | 3.86 | 55.5 |  |  |
| Cn1cc([N+](=O)[O-])nc1C(=O)N[C@H](/C=C/S(=O)(=O)c1ccccc1)CCc1ccccc1 | 7.04 | 4.08 | 28.8 | 91.9 | 59 |
| O=C(Cc1ccccn1)N[C@H](/C=C/S(=O)(=O)c1ccccc1)CCc1ccccc1 | > 20 |  | 37.9 |  |  |
| CC(C)C[C@@H](/C=C/S(=O)(=O)c1ccccc1)NC(=O)c1cccc2cccnc12 | 7.98 | 1.89 | 15.1 |  |  |
| O=C(N[C@H](/C=C/S(=O)(=O)c1ccccc1)CCc1ccccc1)[C@@H]1CSCN1 | 6.94 | 11.2 | 77.8 | 99.3 | 161 |
| CCCC[C@@H](/C=C/S(=O)(=O)c1ccccc1)NC(=O)c1cccc2cccnc12 | 6.2 | 6.38 | 36.5 | 96.2 | 108 |
| O=C(N[C@H](/C=C/S(=O)(=O)c1ccccc1)CCc1ccccc1)c1ccc([N+](=O)[O-])s1 | 0.69 | 18 | 12.4 | 100 |  |
| O=C(N[C@H](/C=C/S(=O)(=O)c1ccccc1)CCc1ccccc1)c1ccc([N+](=O)[O-])o1 | 0.11 | 47 | 5.17 | 78.1 |  |
